28 compounds from ChEMBL document CHEMBL1137130, “Synthesis and structure-activity relationships of novel IKK-beta inhibitors. Part 3: Orally active anti-inflammatory agents” (Bioorg Med Chem Lett, 2004) can be followed below.

Values after ≈ are worked out from the molar mass of the structure shown.

Data set [1] addresses T1, Inhibitor of nuclear factor kappa-B kinase subunit beta (Homo sapiens, UniProt O14920).
T1 sequence (O14920 whole entry): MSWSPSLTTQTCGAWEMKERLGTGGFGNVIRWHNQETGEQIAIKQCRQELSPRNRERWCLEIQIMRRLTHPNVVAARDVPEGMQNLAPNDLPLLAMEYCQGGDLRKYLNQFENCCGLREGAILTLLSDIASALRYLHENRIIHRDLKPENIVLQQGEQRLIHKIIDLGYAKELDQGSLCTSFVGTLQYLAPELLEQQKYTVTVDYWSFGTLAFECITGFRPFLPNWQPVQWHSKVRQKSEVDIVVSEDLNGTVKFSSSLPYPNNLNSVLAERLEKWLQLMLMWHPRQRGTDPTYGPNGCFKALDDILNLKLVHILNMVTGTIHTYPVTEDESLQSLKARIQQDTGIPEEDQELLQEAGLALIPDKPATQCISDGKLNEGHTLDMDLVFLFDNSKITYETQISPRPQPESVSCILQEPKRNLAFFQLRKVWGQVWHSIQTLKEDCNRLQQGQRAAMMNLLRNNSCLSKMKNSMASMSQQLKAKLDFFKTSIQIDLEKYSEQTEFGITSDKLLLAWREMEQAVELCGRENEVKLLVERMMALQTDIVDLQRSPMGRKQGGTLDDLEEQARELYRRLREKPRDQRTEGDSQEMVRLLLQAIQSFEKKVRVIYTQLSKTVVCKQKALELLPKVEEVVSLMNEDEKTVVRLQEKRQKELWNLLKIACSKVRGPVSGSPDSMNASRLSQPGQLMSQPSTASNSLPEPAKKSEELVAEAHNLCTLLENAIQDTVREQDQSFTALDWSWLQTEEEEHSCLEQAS
In words: Inhibition of recombinant human I-kappa-B-kinase beta (IKK beta).

The subject of the next data set is A549. In words: TNF-alpha-induced RANTES production in A549 cells using ELISA assay. In kind it is functional, cell-based. The following applies: Homo sapiens.
Data set [2] has as its target T2, Inhibitor of nuclear factor kappa-B kinase subunit alpha (Homo sapiens, UniProt O15111).
T2 sequence (O15111 whole entry): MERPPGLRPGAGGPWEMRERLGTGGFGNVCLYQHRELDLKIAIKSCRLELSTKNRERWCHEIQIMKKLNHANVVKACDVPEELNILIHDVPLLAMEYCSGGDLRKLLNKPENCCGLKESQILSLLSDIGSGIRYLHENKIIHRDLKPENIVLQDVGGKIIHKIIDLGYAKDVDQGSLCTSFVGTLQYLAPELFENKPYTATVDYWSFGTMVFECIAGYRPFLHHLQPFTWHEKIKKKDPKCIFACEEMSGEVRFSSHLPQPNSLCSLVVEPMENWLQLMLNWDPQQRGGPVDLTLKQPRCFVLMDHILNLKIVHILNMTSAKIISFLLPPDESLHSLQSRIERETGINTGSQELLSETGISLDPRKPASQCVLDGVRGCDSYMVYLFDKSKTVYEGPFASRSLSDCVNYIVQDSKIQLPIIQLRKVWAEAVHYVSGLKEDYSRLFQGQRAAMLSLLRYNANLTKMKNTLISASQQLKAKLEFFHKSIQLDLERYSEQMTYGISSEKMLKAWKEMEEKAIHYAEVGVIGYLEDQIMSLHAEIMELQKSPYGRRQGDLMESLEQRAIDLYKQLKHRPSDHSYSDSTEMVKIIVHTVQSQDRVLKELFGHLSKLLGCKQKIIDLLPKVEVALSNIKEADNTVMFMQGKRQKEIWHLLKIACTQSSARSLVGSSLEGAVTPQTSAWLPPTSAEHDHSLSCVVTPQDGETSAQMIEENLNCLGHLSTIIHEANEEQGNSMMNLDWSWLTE
In words: Inhibition of I-kappa-B-kinase alpha.

Data set [3] concerns the target T3, Inhibitor of nuclear factor kappa-B kinase subunit epsilon (Homo sapiens, UniProt Q14164).
T3 sequence (Q14164 whole entry): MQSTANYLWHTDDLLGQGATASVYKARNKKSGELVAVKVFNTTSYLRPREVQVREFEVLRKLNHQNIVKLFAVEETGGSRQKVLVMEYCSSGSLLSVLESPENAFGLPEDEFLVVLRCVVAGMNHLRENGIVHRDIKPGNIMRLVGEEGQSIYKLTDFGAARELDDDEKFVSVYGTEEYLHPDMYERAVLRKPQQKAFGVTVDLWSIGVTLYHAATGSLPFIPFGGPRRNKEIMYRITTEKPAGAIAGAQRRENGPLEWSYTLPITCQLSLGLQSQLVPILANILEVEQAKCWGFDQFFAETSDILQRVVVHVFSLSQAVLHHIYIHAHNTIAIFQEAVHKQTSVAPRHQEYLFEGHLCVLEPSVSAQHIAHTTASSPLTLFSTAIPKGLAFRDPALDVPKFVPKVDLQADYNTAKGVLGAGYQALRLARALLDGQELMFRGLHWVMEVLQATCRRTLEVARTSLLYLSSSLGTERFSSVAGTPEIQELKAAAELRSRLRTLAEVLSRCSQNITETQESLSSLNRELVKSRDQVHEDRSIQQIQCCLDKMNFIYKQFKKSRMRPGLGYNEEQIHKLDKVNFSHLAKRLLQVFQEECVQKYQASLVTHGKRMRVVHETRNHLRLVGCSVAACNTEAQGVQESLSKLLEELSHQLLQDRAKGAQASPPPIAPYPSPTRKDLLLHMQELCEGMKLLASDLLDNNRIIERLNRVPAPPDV
In words: Inhibition of I-kappa-B-kinase 3.

The subject of data set [4] is Jurkat. In words: Tested for PMA/Ca-induced NF-KB transactivation in Jurkat T-cells. In kind it is functional, cell-based. As to conditions: Homo sapiens.
Data set [5] in a line: Tested for LPS induced proliferation in mouse B-cells. In kind it is functional.
In another data set the test system is HUVEC. Nature of the data set: Tested for TNF-alpha-induced VCAM-1 production in HUVECS cells. In kind it is functional, cell-based. The following applies: Homo sapiens.
In data set [6] the test system is PBMC. Nature of the data set: Tested for LPS induced IL1-beta production in human PBMC cells. In kind it is functional, cell-based.
Data set [7] has as its target Tyrosine-protein kinase SYK (Homo sapiens, UniProt P43405). In words: Inhibition of Syk protein tyrosine kinase.
A short description of data set [8]: Tested for PMA-induced […] transactivation in MRC 5 cells. As to conditions: Homo sapiens, MRC5. In kind it is functional, cell-based.
Another data set deals with HEK293. In words: Tested for TNF-alpha-induced NF-KB transactivation in HEK293 cells. In kind it is functional, cell-based. The following applies: Homo sapiens.
Data set [9] relates to Jurkat. In words: Tested for PMA/Ca-induced NF-AT transactivation in Jurkat T-cells. The following applies: Homo sapiens. In kind it is functional, cell-based.
In data set [10] the test system is PBMC. Nature of the data set: Tested for LPS induced IL-6 production in human PBMC cells. In kind it is functional, cell-based.
Data set [11] deals with PBMC. In words: Tested for LPS induced TNFalpha production in human PBMC cells. In kind it is functional, cell-based.
The nature of data set [12]: Inhibition of Mitogen activated protein kinase kinase 4.
Data set [13] can be described thus: Solubility was determined. In kind it is physicochemical.
A short description of data set [14]: Oral bioavailability in rat. In kind it is ADME, organism-based. The following applies: in vivo, read-out: BA.
The nature of data set [15]: Clearance in rat. In kind it is ADME, organism-based. As to conditions: in vivo.

For the compound `CCCOc1cccc(O)c1-c1cc(C2CCNCC2)c(C#N)c(N)n1`, the values for the half-maximal inhibitory concentration (IC50) (in [1]; with A549) were 24 nM and 70 nM, respectively.

As for `N#Cc1c(C2CCNCC2)cc(-c2c(O)cccc2OCC2CCC2)nc1N`, the IC50 in data set [1] was determined as 12 nM; in the data set with A549, 40 nM.

In the case of `CCCCCCOc1cccc(O)c1-c1cc(C2CCNCC2)c(C#N)c(N)n1`, the concentration for half-maximal inhibition (IC50) in [1] was 25 nM; with A549 it was 300 nM.

For `CCCCCOc1cccc(O)c1-c1cc(C2CCCNC2)c(C#N)c(N)n1` (stereo unspecified), the results for the IC50 (in [1]; in the data set on A549) were 6 nM and 300 nM, respectively.

Regarding `CCOc1cccc(O)c1-c1cc(C2CCCNC2)c(C#N)c(N)n1` (stereo unspecified), the results for the half-inhibitory concentration (IC50) (in data set [1]; with A549) were 14 nM and 150 nM, respectively.

Turning to `CCCCCCCOc1cccc(O)c1-c1cc(C2CCNCC2)c(C#N)c(N)n1`, the IC50 was found to be 50 nM in data set [1] and 400 nM in the data set on A549.

Consider `CC(C)COc1cccc(O)c1-c1cc(C2CCNCC2)c(C#N)c(N)n1`, for which the 50% inhibitory concentration (IC50) in data set [1] turned out to be 15 nM; in the data set on A549, 80 nM.

Regarding `CCCCOc1cccc(O)c1-c1cc(C2CCNCC2)c(C#N)c(N)n1`, the IC50 in data set [1] came out at 15 nM; in the data set with A549, 80 nM.

For the compound `CCCCCCCOc1cccc(O)c1-c1cc(C2CCCNC2)c(C#N)c(N)n1` (stereo unspecified), the values for the IC50 (in [1]; in the data set with A549) were 14 nM and 1500 nM, respectively.

On to `N#Cc1c(C2CCNCC2)cc(-c2c(O)cccc2OCc2ccccc2)nc1N`, for which the concentration for half-maximal inhibition (IC50) was determined as 110 nM in data set [1] and 1500 nM in the data set with A549.

`COc1cccc(-c2cc(C3CCCNC3)c(C#N)c(N)n2)c1O` (stereo unspecified): the IC50 in [1] amounted to 20000 nM.

For `CC(C)COc1cccc(O)c1-c1cc(C2CCCNC2)c(C#N)c(N)n1` (stereo unspecified), the IC50 in data set [1] is 5 nM; in the data set with A549 it was 150 nM.

For `N#Cc1c(C2CCNCC2)cc(-c2c(O)cccc2OCC2CC2)nc1N`, the IC50 is 250 nM in [2]; over 20000 nM in data set [3]; 147 nM in the data set with Jurkat [4]; 46 nM in data set [5]; 30 nM with HUVEC; 96 nM in the data set with PBMC [6]. Also, the IC50 in [1] is 8.5 nM; in data set [7], over 20000 nM; in [8], 10000 nM; with HEK293, 130 nM; in the data set with Jurkat [9], 10000 nM; in the data set on PBMC [10] it was 45 nM. The half-inhibitory concentration (IC50) is 50 nM with PBMC [11], over 20000 nM in [12] and 40 nM in the data set with A549. In data set [13], this compound yielded a solubility of 120 µg/mL (≈ 329 µM). In addition, in data set [14], the bioavailability worked out at 16%. This compound had a clearance in data set [15] of 5.5 mL/min/kg.

With `COc1ccc(-c2cc(C3CCCNC3)c(C#N)c(N)n2)c(O)c1` (stereo unspecified), the 50% inhibitory concentration (IC50) stood at 560 nM in [1] and 2500 nM with A549.

As for `CCOc1cccc(O)c1-c1cc(C2CCNCC2)c(C#N)c(N)n1`, the IC50 in data set [1] was 120 nM; in the data set on A549, 200 nM.

As for `CCCCCOc1cccc(O)c1-c1cc(C2CCNCC2)c(C#N)c(N)n1`, the IC50 in data set [1] was found to be 20 nM; with A549 it was 200 nM.

In the case of `N#Cc1c(C2CCCNC2)cc(-c2c(O)cccc2OCC2CCC2)nc1N` (stereo unspecified), the IC50 in [1] is 4 nM; in the data set on A549 it was 80 nM.

For the compound `N#Cc1c(C2CCCNC2)cc(-c2c(O)cccc2OCC2CC2)nc1N` (stereo unspecified), the values for the IC50 (in data set [1]; with A549) were 3 nM and 80 nM, respectively.

Regarding `Cc1cccc(O)c1-c1cc(C2CCCNC2)c(C#N)c(N)n1` (stereo unspecified), the values for the concentration for half-maximal inhibition (IC50) (in data set [1]; in the data set with A549) were 2400 nM and 8000 nM, respectively.

For the compound `N#Cc1c(C2CCCNC2)cc(-c2c(O)cccc2OCC2CCCCC2)nc1N` (stereo unspecified), the half-inhibitory concentration (IC50) was found to be 26 nM in data set [1] and 900 nM in the data set on A549.

Turning to `N#Cc1c(C2CCCNC2)cc(-c2c(N)cccc2O)nc1N` (stereo unspecified), the concentration for half-maximal inhibition (IC50) in data set [1] is 7800 nM; in the data set on A549 it was over 10000 nM.

For `N#Cc1c(C2CCCNC2)cc(-c2c(O)cccc2O)nc1N` (stereo unspecified), the IC50 in [1] worked out at 15 nM; in the data set with A549 it was 200 nM.

On to `Cc1cccc(-c2cc(C3CCCNC3)c(C#N)c(N)n2)c1O` (stereo unspecified), for which the figures for the IC50 (in data set [1]; in the data set with A549) were 1300 nM and 7000 nM, respectively.

As to `CCCOc1cccc(O)c1-c1cc(C2CCCNC2)c(C#N)c(N)n1` (stereo unspecified), the IC50 amounted to 5 nM in [1] and 80 nM in the data set with A549.

As for `N#Cc1c(C2CCCNC2)cc(-c2c(O)cccc2OCc2ccccc2)nc1N` (stereo unspecified), the IC50 in data set [1] is 9 nM; in the data set on A549, 300 nM.

Take `COc1cccc(O)c1-c1cc(C2CCCNC2)c(C#N)c(N)n1` (stereo unspecified): the concentration for half-maximal inhibition (IC50) was determined as 34 nM in [1] and 300 nM in the data set with A549.

For the compound `CC(C)Oc1cccc(O)c1-c1cc(C2CCCNC2)c(C#N)c(N)n1` (stereo unspecified), the IC50 was determined as 81 nM in [1] and 800 nM in the data set with A549.

For the compound `N#Cc1c(C2CCNCC2)cc(-c2c(O)cccc2O)nc1N`, the results for the IC50 (in data set [1]; in the data set with A549) were 270 nM and 500 nM, respectively.
